In US9464064B2, “HCV helicase inhibitors and methods of use thereof” (University of Kansas, priority 2011, dated 2016):
Read-outs that look alike come from different tables or passages of the source.

What was measured:
[1] = target: T1, HCV NS3 helicase NS3h_1b(con1) (Hepatitis C virus genotype 1b, UniProt Q9WMX2); assay: biochemical; type: biochemical, hepatitis C virus genotype 1b(con1)
T1 construct: truncated C-terminally His-tagged NS3 proteins lacking the N-terminal protease, called NS3h; His-tag (C); made in house
Method in brief: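 Molecular beacon helicase assay with His-tagged recombinant NS3 and a Cy5/IBRQ-labelled partially duplex DNA substrate (25 bp) or Tye665-labelled RNA substrate (19 bp). Reactions started with 1 mM ATP. Screening read fluorescence before and 30 min after ATP (ex 643/em 670 nm). For IC50, 5% v/v DMSO was present, initial velocities came from first-order decay fits, and a Hill equation was applied.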

MBHA DNA substrate = assay: Modified FID assay, SYBR Green I; type: binding
Method in brief: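 Fluorescent intercalator displacement with SYBR Green I (0.68 μM) in place of ethidium bromide and MBHA DNA at 0.32 μM. Normalized data fit to concentration-response equation; EC50 given as mean ± SD of three independent triplicate titrations.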

NS3h_1b = target: T2, NS3h_1b (Hepatitis C virus genotype 1b, UniProt Q9WMX2); assay: ATPase assay without RNA; type: biochemical, hepatitis C virus genotype 1b(con1)
T2 construct: truncated C-terminally His-tagged NS3 proteins lacking the N-terminal protease, called NS3h; His-tag (C); made in house
Protocol: A modified “malachite green” assay (Lanzetta, et al. (1979) Anal. Biochem. 100:95-97) was used to measure ATP hydrolysis. Fifty μL reactions contained 25 mM MOPS pH 6.5, 5 mM MgCl2, 2 mM ATP, 5 μg/mL BSA, 0.01% (v/v) TWEEN 20, 0.05 mM DTT, and poly(U) RNA (Saint Louis, Mo.) as indicated. Reactions were initiated by adding NS3h_1b(con1). Reactions were incubated for 15 minutes at 37° C. then stopped by mixing 40 μL of the reaction into 200 μL of the malachite green reagent (3 volumes 0.045% (w/v) malachite green, 1 volume 4.2% ammonium molybdate in 4N HCl, 0.05 volume of 20% TWEEN 20). […] Absorbance at 630 nm was proportional to the concentration of phosphate produced; free phosphate produced was measured against a standard curve.
A simple explanation for the ability of some of the primuline derivatives to inhibit helicase and protease with similar potency would be that the compounds acted by simply aggregating or denaturing the enzyme. To test for irreversible inhibition, NS3h was incubated with 100 μM of each compound, diluted and then assayed for its ability to unwind DNA under standard conditions. […] In a second test for a simple aggregation mechanism, each compound was tested for its ability to inhibit NS3-catalyzed ATP hydrolysis. ATP hydrolysis fuels the unwinding reaction and NS3 hydrolyzes ATP both in the presence and absence of DNA or RNA; nucleic acid stimulates NS3 catalyzed ATP hydrolysis about 50-fold. […] To test this hypothesis, ATPase assays were performed in the presence of various concentrations of each primuline derivative, under conditions similar to those used to monitor effects on DNA and RNA unwinding. Far more of each compound was needed to inhibit NS3-catalyzed ATP hydrolysis than was needed to inhibit the helicase activity, or, in some cases, NS3 protease activity (Table 11).

[2] = Absorbance and fluorescence properties; type: physicochemical; settings: for Absorbance ∈: extinction coefficient
Text: Most of the compounds isolated from the two yellow dyes were fluorescent, absorbing light around 340 nm, and emitting near 420 nm. Their extinction coefficient and peak absorption wavelengths increased as the length of the benzothiazole oligomer increased. Their relative fluorescence decreased with the length of the benzothiazole chain. None of the compounds absorbed light near either the absorption or emission wavelengths of the Cy5-labeled MBHA substrate, or the wavelengths where the fluorescence of ethidium bromide stained DNA, SYBER green I-stained DNA, NS3-catalyzed peptide cleavage, or ATP hydrolysis were measured.
When directly compared with P4, the semi-synthetic primuline derivatives have a sharper absorbance peak centered near 360 nm, and they emit 3-15 times more light when excited at their absorbance maximum. […] Some compounds, like 12, stained both the cytoplasm and nucleus, but they also stained glass coverslips.

[3] = DNA-based MBHA, genotype 1b, read-out: DNA Helicase NS3h_1b IC50 (μM) ± SD
[4] = MBHA, DNA unwinding, mean ± SD of three titrations, read-out: Helicase IC50

T1 sequence (Q9WMX2 1192-1657): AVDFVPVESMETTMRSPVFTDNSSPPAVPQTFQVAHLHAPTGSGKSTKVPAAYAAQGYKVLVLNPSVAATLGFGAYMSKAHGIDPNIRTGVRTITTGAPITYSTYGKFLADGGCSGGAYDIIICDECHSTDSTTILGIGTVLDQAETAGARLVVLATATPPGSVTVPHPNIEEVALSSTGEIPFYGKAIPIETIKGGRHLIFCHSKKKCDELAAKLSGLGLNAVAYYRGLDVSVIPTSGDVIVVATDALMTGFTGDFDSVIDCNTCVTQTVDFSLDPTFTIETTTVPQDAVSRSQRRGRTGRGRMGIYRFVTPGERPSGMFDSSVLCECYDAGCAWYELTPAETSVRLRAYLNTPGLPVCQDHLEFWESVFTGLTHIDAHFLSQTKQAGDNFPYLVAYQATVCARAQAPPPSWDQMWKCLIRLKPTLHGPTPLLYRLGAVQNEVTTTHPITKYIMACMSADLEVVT
T2 sequence (Q9WMX2 1192-1657): as above

SMILES	IC50 [1, 3] [µM]	IC50 [1, 4] [µM]	IC50 ([1]; genotype 1b (con1), read-out: Target Potency MBHA (IC50 avg., μM) 1b (con1)) [µM]	IC50 ([1]; standard HCV helicase MBHA (Table 9), read-out: DNA Unwinding IC50) [µM]	DNA binding (%) (MBHA DNA substrate; SYBR Green I-FID, average (±SD) percent bound at 100 μM)	FID (SG) % Displaced @ 100 μM (MBHA DNA substrate; SYBR Green, 100 μM) [%]	EC50 (MBHA DNA substrate; SYBR Green, read-out: FID (SG) EC50 (converted)) [µM]	IC50 (NS3h_1b) [µM]	Absorbance λmax [2] [nm]	Fluorescence Emmax [2] [nm]	Fluorescence RFU@ 10 μM [2] [RFU]	Absorbance ∈ [2]	fold weaker DNA binding than potency in MBHA (MBHA DNA substrate; DNA binding versus MBHA IC50) [fold]	EC50 (MBHA DNA substrate; FID, mean ± SD, read-out: DNA Binding (SYBR Green I) EC50) [µM]
Cc1ccc2nc(-c3ccc4nc(-c5ccc(NC(=O)c6ccc7nc(-c8ccc(N)cc8)sc7c6)cc5)sc4c3)sc2c1S(=O)(=O)O [Compound 35, 2′-(4-(2-(4-aminophenyl)benzo[d]thiazole-6-carboxamido)phenyl)-6-methyl-[2,6′-bibenzo[d]thiazole]-7-sulfonic acid]	6 ± 2.1	5.5 ± 2.1	5.5 ± 2.1	6 ± 2	59 ± 4	59 ± 4	68	> 200	361	532	2	42,000 M^−1cm^−1	–	–
Cc1ccc2nc(-c3ccc4nc(-c5ccc6nc(-c7ccc8nc(-c9ccc(N)cc9)sc8c7)sc6c5)sc4c3)sc2c1S(=O)(=O)O [Compound P4, 2′″-(4-aminophenyl)-6-methyl-[2,6′:2″,6′″-quaterbenzo[d]thiazole]-7-sulfonic acid]	2 ± 0.1	0.8	–	–	–	–	–	43 ± 10	382	467	3	32,000 M^−1cm^−1	17	15 ± 8
